≈ marks a conversion by molar mass, not a printed value. Read-outs that look alike come from different tables or passages of the source.

The results in this text go back to patent US20170258761A1, “Pharmaceutical Compositions Comprising Canagliflozin” (Sandoz AG, priority 2014, published 2017).

Holding throughout (type): physicochemical
Data set [1] in a line: Equilibrium aqueous solubility at 25 °C (HPLC). As to conditions: water, 25 ± 1° C. The protocol: As described in Example 5 of the co-pending application PCT/EP2014/059281, the aqueous solubilities of forms HxA and HxB of the present invention and the hemihydrate of Canagliflozin described in WO 2008/069327 A1 were determined by the equilibrium solubility method. Saturated solutions of Canagliflozin, obtained by stirring 50 mg of each crystalline form in 50 mL water were prepared and stirred at 25±1° C. After 60 minutes of stirring, three samples were withdrawn, filtered through 0.45 μm syringe filters and the filtrates were directly analyzed by HPLC.
Using six concentration points of known Canagliflozin concentrations a calibration line was fitted by linear regression.

A short description of data set [2]: Influence of water activity on physical stability of Canagliflozin. As to conditions: samples exposed to 30, 40, 50, 60 RH %, then 50° C. for 14 days. Here is the method: The influence of water activity on physical stability of Canagliflozin were further tested. Prior storage at stress stability conditions samples were exposed to different relative humidity (30, 40, 50 and 60 RH %). After storage at elevated temperature (50° C.) for 14 days samples were tested for water activity and polymorphic form. It was established that Canagliflozin was physically stable when water activity was≦0.3. Results confirmed that appropriate dryness of the samples is critical for product stability.
The influence of water activity of the formulation on physical stability of Canagliflozin was further tested. Prior storage at stress stability conditions samples were exposed to different relative humidity (30, 40, 50 and 60 RH %). After storage at elevated temperature (50° C.) for 14 days samples were tested for water activity and polymorphic form. It was established that Canagliflozin was physically stable when water activity was≦0.4. Results confirmed that appropriate dryness of the samples is critical for product stability (see Table 14, showing Examples 2 and 7 as exemplary samples).

Data set [3] is described as follows: Equilibrium solubility of Canagliflozin in McIlvaine buffer, FaSSIF and FeSSIF with excipients. The note with it: 37 °C, thermodynamic from solid.
Experiment in data set [4]: as above
The note with it: 37 °C, thermodynamic from solid. Here is the method: Inhibition of precipitation and supersaturation effects were also evaluated in more biorelevant dissolution media, FaSSIF and FeSSIF, prepared according to Dressman et al. (Dressman et al. Dissolution testing as a prognostic tool for oral drug absorption: immediate release dosage forms. Pharm Res, 1998)). Excipients were used in 1 mg/ml concentration. […] All tests were performed in duplicate.
This is another data set of the same source.

Data set [5] can be described thus: Water activity of excipients, normal and dried. The note with it: for Water activity dry (#): excipient dried for 4 hours at ambient temperature in a vacuum chamber; for Water activity normal (*): excipient exposed to 40% RH for 24 hours at ambient temperature. The protocol: The influence of water activity of each excipient on chemical and physical stability of Canagliflozin was further tested.
In Table 12, the normal (*) excipients mean that they were exposed to 40% RH for 24 hours at ambient temperature; and the dry (#) excipients mean that they were dried for 4 hours at ambient temperature in a vacuum chamber.

Data set [6] in a line: Precipitation inhibition screening of excipients with nephelometer. The note with it: McIlvaine buffer pH 6.8. Here is the method:
In vitro high-throughput precipitation inhibition screening with nephelometer was performed for different excipients in McIlvaine buffer pH 6.8 at 1%, 0.1%, and 0.01% (w/v) according to the procedure published in Petrusevska et al (Petrusevska et al. Evaluation of light scattering and turbidity microtiter plate-based methods for detection of the excipient-mediated drug precipitation inhibition. Eur J Pharm Biopharm, 2013). The ratio between turbidity signal for each tested concentration of selected excipient with Canagliflozin and plain buffer containing only Canagliflozin were determined.

A short description of data set [7]: Solubility and dynamic solubility of amorphous Canagliflozin versus hemihydrate. The note with it: 37° C., shaking, HPLC. The protocol: Additionally dynamic solubility in water was determined at 0.5 h, 1 h and 24 h time points (37° C., shaking, HPLC determination).
Data set [8] is described as follows: Chemical stability in binary mixtures with excipients. As to conditions: 1 g + 1 g excipient of Table 9, tablets, 50° C., sealed glass vial, 14 days. Here is the method:
Canagliflozin degradation products were followed by high performance liquid chromatography using the following chromatographic method. Samples were dissolved in a mixture of 60 w/w % acetonitrile in buffer pH=5 (0.77 g of CH3OONH4 in 1 L of water, pH adjusted to pH=5 with acetic acid) to achieve a concentration of about 0.2 mg/ml of Canagliflozin. The sample solution was injected into an UHPLC system with a BEH C18 column (1.7 micrometer particles) using binary gradient elution. Mobile phase A consisted of mixture of 70 w/w % buffer with pH=5 in acetonitrile and mobile phase B consisted of acetonitrile. Gradient elution was performed according to the following program: mobile phase A (%)/time (min): 100%/0 min; 100%/5 min; 14%/[…]; 40%/35 min; 15%/40 min; 15%/45 min. The detector was set to a wavelength of 290 nm and impurities quantitated as area % with no response factors applied. Stability of samples was monitored by exposing them to elevated temperature (50° C.) in a sealed glass vial for 14 days. After storage, samples were analysed and the amounts of degradation products measured by UHPLC. The extent of degradation was determined by subtracting the total amount of degradation products of a […] from the total amount of degradation of a […].

In the case of `Cc1ccc([C@@H]2O[C@H](CO)[C@@H](O)[C@H](O)[C@H]2O)cc1Cc1ccc(-c2ccc(F)cc2)s1` [1-(β-D-glucopyranosyl)-4-methyl-3-[5-(4-fluorophenyl)-2-thienylmethyl]benzene], the solubility at 60 min in data set [1] (25 °C, thermodynamic from solid, 60 minutes of stirring, read-out: Abs. Solubilities) turned out to be 18 µg/mL (≈ 0.0405 mM).
Regarding `Cc1ccc([C@@H]2O[C@H](CO)[C@@H](O)[C@H](O)[C@H]2O)cc1Cc1ccc(-c2ccc(F)cc2)s1` [Canagliflozin, 1-(β-D-glucopyranosyl)-4-methyl-3-[5-(4-fluorophenyl)-2-thienylmethyl]benzene], the “water activity at which Canagliflozin was physically stable” value is reported as no more than 0.3 in data set [2] (Example A (non-stoichiometric hydrate)) and no more than 0.4 in data set [2] (Example B (amorphous formulation)). Besides, the solubility thermodynamic at 24 h in data set [3] (FaSSIF, pH 6.5, fassif, no excipient, 24 h incubation, read-out: Equilibrium solubility in FaSSIF pH 6.5) is 5310 ± 970 µg/mL (≈ 11.9 mM); in data set [3] (McIlvaine buffer, pH 6.5, aqueous buffer, buffer, no excipient, 24 h incubation, read-out: Equilibrium solubility in McIlvaine buffer pH 6.5) it was 21 ± 1 µg/mL (≈ 0.0472 mM); in data set [3] (McIlvaine buffer, pH 6.5, aqueous with cosolvent or surfactant or cyclodextrin, with HPMC 606 1 mg/ml, 24 h, read-out: Equilibrium solubility in McIlvaine buffer pH 6.5) it was 62 ± 7 µg/mL (≈ 0.139 mM); in data set [3] (McIlvaine buffer, pH 6.5, aqueous with cosolvent or surfactant or cyclodextrin, with Texapon 1 mg/ml, 24 h, read-out: Equilibrium solubility in McIlvaine buffer pH 6.5), 2850 ± 332 µg/mL (≈ 6.4 mM); in data set [3] (McIlvaine buffer, pH 6.5, aqueous with cosolvent or surfactant or cyclodextrin, with Texapon + HPMC 603, each 1 mg/ml, 24 h, read-out: Equilibrium solubility in McIlvaine buffer pH 6.5), 2580 ± 36 µg/mL; in data set [4] (FaSSIF, pH 6.5, aqueous with cosolvent or surfactant or cyclodextrin, with Texapon 1 mg/ml, 24 h, read-out: Equilibrium solubility in FaSSIF pH 6.5), 7980 µg/mL (≈ 18 mM). The solubility thermodynamic at 24 h in data set [4] (FaSSIF, pH 6.5, aqueous with cosolvent or surfactant or cyclodextrin, with Texapon + HPMC 603, each 1 mg/ml, 24 h, read-out: Equilibrium solubility in FaSSIF pH 6.5) is 8480 ± 180 µg/mL; in data set [4] (FeSSIF, pH 5.5, aqueous with cosolvent or surfactant or cyclodextrin, with Texapon 1 mg/ml, 24 h, read-out: Equilibrium solubility in FeSSIF pH 5.5), 25000 ± 1340 µg/mL (≈ 56.2 mM); in data set [4] (FeSSIF, pH 5.5, aqueous with cosolvent or surfactant or cyclodextrin, with Texapon + HPMC 603, each 1 mg/ml, 24 h, read-out: Equilibrium solubility in FeSSIF pH 5.5), 27800 ± 2350 µg/mL; in data set [4] (FeSSIF, pH 5.5, fessif, no excipient, 24 h incubation, read-out: Equilibrium solubility in FeSSIF pH 5.5), 21000 ± 1030 µg/mL (≈ 47.3 mM).
Regarding `OC[C@H]1O[C@@H](O[C@H]2[C@H](O)[C@@H](O)C(O)O[C@@H]2CO)[C@H](O)[C@@H](O)[C@H]1O` (stereo partly drawn) [Lactose anhydrous], in data set [5], the “Water activity dry (#)” value is on record as 14.8 and the “Water activity normal (*)” value was 28.6.
For the compound `CCCCCCCCCCCCCCCCCC(=O)[O-].CCCCCCCCCCCCCCCCCC(=O)[O-].[Mg+2]` [Mg stearate], in data set [5], the “Water activity dry (#)” value came out at 15.9 and the “Water activity normal (*)” value is reported as 26.6.
As for `CCCCCCCCCCCCOS(=O)(=O)[O-].[Na+]` [Texapon, Sodium Lauryl Sulfate], the “time Canagliflozin supersaturation was sustained” value in data set [6] (excipient at highest concentration tested (1% w/v)) turned out to be 10 min. Moreover, in data set [6] (highest concentration tested), the “rate of canagliflozin dissolution in the presence of excipient” value is given as “fastest”.
For `Cc1ccc([C@@H]2O[C@H](CO)[C@@H](O)[C@H](O)[C@H]2O)cc1Cc1ccc(-c2ccc(F)cc2)s1` [amorphous Canagliflozin, 1-(β-D-glucopyranosyl)-4-methyl-3-[5-(4-fluorophenyl)-2-thienylmethyl]benzene], in data set [7] (0.5 h, 1 h and 24 h), the “dynamic solubility in water compared to crystalline Canagliflozin hemihydrate” value is “increased solubility as well as dynamic solubility”. Further, in data set [7] (pH 1.2, 4.5 and 6.8), the “solubility compared to crystalline Canagliflozin hemihydrate” value was “increased solubility”. In addition, the “degradation products (impurities) in binary mixtures with excipients” value in data set [8] was “no increase in impurities was observed”.
Turning to `Cc1ccc([C@@H]2O[C@H](CO)[C@@H](O)[C@H](O)[C@H]2O)cc1Cc1ccc(-c2ccc(F)cc2)s1` [form HxA, 1-(β-D-glucopyranosyl)-4-methyl-3-[5-(4-fluorophenyl)-2-thienylmethyl]benzene form HxA], in data set [1], the “Rel. Solubilities” value worked out at 100% and the “increased aqueous solubility compared to the crystalline hemihydrate of WO 2008/069327 A1” value is 10%. In addition, the “Abs. Solubilities” value in data set [1] (60 minutes of stirring) was found to be 20 µg/mL.
`Cc1ccc([C@@H]2O[C@H](CO)[C@@H](O)[C@H](O)[C@H]2O)cc1Cc1ccc(-c2ccc(F)cc2)s1` [form HxB, 1-(β-D-glucopyranosyl)-4-methyl-3-[5-(4-fluorophenyl)-2-thienylmethyl]benzene form HxB]: in data set [1], the “Rel. Solubilities” value is given as 100% and the “increased aqueous solubility compared to the crystalline hemihydrate of WO 2008/069327 A1” value is on record as 10%. For the same compound, in data set [1] (60 minutes of stirring), the “Abs. Solubilities” value is 20 µg/mL.
For the compound `Cc1ccc([C@@H]2O[C@H](CO)[C@@H](O)[C@H](O)[C@H]2O)cc1Cc1ccc(-c2ccc(F)cc2)s1` [hemihydrate of WO 2008/069327 A1 (=Hy0.5)] [1-(β-D-glucopyranosyl)-4-methyl-3-[5-(4-fluorophenyl)-2-thienylmethyl]benzene], the “Rel. Solubilities” value in data set [1] is 90%. Moreover, the “degradation products (impurities) in binary mixtures with excipients” value in data set [8] (listed as Canagliflozin hemihydrate) was “impurities were increased when containing excipients such as Syloid, PEG 6000 and Polyoxyl 40 hydrogenated castor oil”.
